Data reported in US10526358B2, “Crystalline forms” (GRUNENTHAL GMBH, priority 2016, dated 2020).

Columns and labels:
[1] = apparent water solubility at room temperature; format: physicochemical
[2] = cited from earlier work
[3] = FDA SBA; cited from earlier work
[4] = FDA SBA; cited from earlier work; remark: listed apart in the source
[5] = in vivo; cited from earlier work

O=P(O)(O)C(O)(Cn1ccnc1)P(=O)(O)O [Zoledronic acid, (1-hydroxy-2-imidazol-1-yl-1-phosphono-ethyl)phosphonic acid]
apparent water solubility [1]: few | solubility in 0.1 N HCl solution ([2]; 0.1 N HCl): sparingly soluble | solubility in 0.1 N NaOH ([2]; 0.1 N NaOH): freely soluble | solubility in various organic solvents ([2]; various organic solvents): practically insoluble | solubility in water ([2]; water): sparingly soluble | oral bioavailability [3]: approximately 1% | permeability in the GI tract [4]: poor permeability | gastric and intestinal irritations [5]: severe gastric and intestinal irritations
